Values of other authors as cited in patent publication US9403784B1, “Fumarate compounds, pharmaceutical compositions thereof, and methods of use” (priority 2015, dated 2016).

For `COC(=O)/C=C/C(=O)OC` [DMF, dimethylfumarate], which aqueous solubility is on record?
Its aqueous solubility is “poor aqueous solubility”.
